Where two headings read alike, the source gives them in different places. Where no end group is shown, it is not given here.
How the values were obtained:
[1] = Influence of cooling on ice and P100 protease inhibitor cocktail on peptide stability; conditions: HPLC-MS/MS, measured in triple; for Effect of cooling with ice on stability: spiked on K2EDTA and P100 plasma, measured immediately and after 30 and 60 min on ice or at room temperature; for Influence of the P100 tube (protease inhibitor cocktail) on stability: P100 vs K2EDTA, immediately, 30 and 60 min on ice or at room temperature
Procedure: The samples were measured immediately, and after 30 and 60 min on ice or at room temperature (Fig. 6). All samples were measured in triple.
The samples were measured immediately, or after 30 and 60 min on ice or at room temperature.

[2] = Stability of spiked synthetic peptides in plasma according to the preanalytical condition (immediately vs 60 min at room temperature); conditions: HPLC-MS/MS; for Degradation at the immediate measurement in non-acidified conditions: non-acidified plasma, measured immediately after spiking; for Degradation after one hour at room temperature: spiked synthetic peptide; for Appearance of apelin-pyr-13 after spiking synthetic apelin-13: after 60 min
Text: We aimed to minimalize degradation after sampling with a preanalytical protocol summarized in Fig. 3, including immediate cooling and rapid processing of samples. […] However, acidification can be applied only after separation by centrifugation of whole blood into a plasma and a cell compartment, because acidification of whole blood would lead to hemolysis and coagulation, rendering the blood samples unsuitable for further measurements. Therefore, we used protease inhibitor cocktail-containing K2EDTA-coated P100 blood tubes and a mechanical plasma separator (366422 BD Biosciences, San Jose, CA, USA)[19]. The aim of the protease inhibitor cocktail is to inactivate proteolytic degradation by enzymes present in whole blood; the mechanical separator prevent contact with cell-bound enzymes, both theoretically limiting enzymatic degradation of apelin during the several minutes between blood collection in the tube and completed plasma separation and acidification.
Figure 3 Overview of preanalytical conditions. Samples were immediately cooled on ice and processed within 1 h. Both standard K2EDTA tubes and P100 prechilled tubes containing a protease inhibitor cocktail and mechanical separator were used. The standard K2EDTA was centrifuged for 10 min 1300 × g at 4 °C, while the P100 tube was centrifuged for 20 min 2500 × g at 4 °C, according to the manufacturers’ instructions. After separation, plasma was untreated or acidified to either pH 2.5 or 4.5 by adding the plasma to low protein-binding tubes pre-filled with either phosphoric acid or formic acid. The plasma samples were stored directly at − 20 °C and transferred within 4 h at − 80 °C.
Spiking of individual peptides was performed on plasma collected in K2EDTA tubes, stored either non-acidified, or acidified to pH 4.5 or pH 2.5 and on plasma collected in P100 tubes, stored either non-acidified, or acidified to pH 4.5 and pH 2.5. The samples were measured both immediately and after 60 min at room temperature, each sample was measured 3 times.

[3] = cited from earlier work
Text: However, acidification can be appl ...

[4] = system: Kallikrein; conditions: cited from earlier work
Text: (§1) Table 1 Enzymatic processing of apelin. | column: Conversion

[5] = system: Prolyl carboxypeptidase; conditions: cited from earlier work
Text: as §1

[6] = system: Furin (PCSK3); conditions: cited from earlier work
Text: as §1

[7] = system: G-protein-coupled apelin receptor (AR); parameters: method as in PMID 23872001, PMID 18272843, PMID 29357134; conditions: cited from earlier work
Text: Apelin is expressed as a 77–amino acid precursor, and the C-terminal 17 residues are completely conserved in mammalians. Enzymatic processing (overviewed in Table 1) results in several active C-terminal fragments named apelin-n, specifying that a given isoform has “n” amino acids, all sharing the same 12 C-terminal residues that contain the receptor-binding site (Fig. 1).

[8] = K2EDTA plasma acidified to pH 2.5, immediately and after 60 min at room temperature, measured 3 times
[9] = K2EDTA plasma acidified to pH 4.5, immediately and after 60 min at room temperature, measured 3 times
[10] = K2EDTA plasma, non-acidified, measured immediately and after 60 min at room temperature, each sample measured 3 times
[11] = P100 (protease inhibitor cocktail) plasma, non-acidified, immediately and after 60 min at room temperature, measured 3 times
[12] = P100 plasma acidified to pH 2.5, immediately and after 60 min at room temperature, measured 3 times
[13] = P100 plasma acidified to pH 4.5, immediately and after 60 min at room temperature, measured 3 times
[14] = previously described plasma acidification step to pH 4.5

| Compound | Effect of cooling with ice on stability [1] | Degradation at the immediate measurement in non-acidified conditions [2] | Influence of the P100 tube (protease inhibitor cocktail) on stability [1] | Degradation after one hour at room temperature [2, 8] | Degradation after one hour at room temperature [2, 9] | Degradation after one hour at room temperature [2, 10] | Degradation after one hour at room temperature [2, 11] | Degradation after one hour at room temperature [2, 12] | Degradation after one hour at room temperature [2, 13] | Stability in plasma acidified to pH 4.5 [3, 14] | also measured |
| --- | --- | --- | --- | --- | --- | --- | --- | --- | --- | --- | --- |
| CSCC[C@H](NC(=O)[C@@H]1CCCN1C(=O)CNC(=O)[C@H](CCCCN)NC(=O)[C@H](Cc1c[nH]cn1)NC(=O)[C@H](CO)NC(=O)[C@H](CC(C)C)NC(=O)[C@H](CCCNC(=N)N)NC(=O)[C@@H]1CCCN1C(=O)[C@@H](N)CCCNC(=N)N)C(=O)N1CCC[C@H]1C(=O)N[C@@H](Cc1ccccc1)C(=O)O [Apelin-12] | cooling with ice increases stability | immediate degradation | – | – | – | – | – | – | – | – | Storage pH giving the best stability in plasma ([2]; plasma non-acidified, pH 4.5 or pH 2.5, 60 min at room temperature): most stable at pH 2.5 |
| CSCC[C@H](NC(=O)[C@@H]1CCCN1C(=O)CNC(=O)[C@H](CCCCN)NC(=O)[C@H](Cc1cnc[nH]1)NC(=O)[C@H](CO)NC(=O)[C@H](CC(C)C)NC(=O)[C@H](CCCNC(=N)N)NC(=O)[C@@H]1CCCN1C(=O)[C@H](CCCNC(=N)N)NC(=O)[C@@H](N)CCC(N)=O)C(=O)N1CCC[C@H]1C(=O)N[C@@H](Cc1ccccc1)C(=O)O [Apelin-13] | cooling with ice increases stability | immediate degradation | small added value | minor degradation | minor degradation | rapid degradation | rapid degradation | minor degradation | minor degradation | provide stability | Appearance of apelin-pyr-13 after spiking synthetic apelin-13 ([2]; K2EDTA plasma non-acidified): minimal; Appearance of apelin-pyr-13 after spiking synthetic apelin-13 ([2]; K2EDTA plasma pH 2.5): ~25%; Appearance of apelin-pyr-13 after spiking synthetic apelin-13 ([2]; K2EDTA plasma pH 4.5): ~3 × |
| CSCC[C@H](NC(=O)[C@@H]1CCCN1C(=O)CNC(=O)[C@H](CCCCN)NC(=O)[C@H](Cc1cnc[nH]1)NC(=O)[C@H](CO)NC(=O)[C@H](CC(C)C)NC(=O)[C@H](CCCNC(=N)N)NC(=O)[C@@H]1CCCN1C(=O)[C@H](CCCNC(=N)N)NC(=O)[C@H](CCC(N)=O)NC(=O)[C@H](CCCNC(=N)N)NC(=O)[C@H](CCCNC(=N)N)NC(=O)[C@H](Cc1ccccc1)NC(=O)[C@@H](N)CCCCN)C(=O)N1CCC[C@H]1C(=O)N[C@@H](Cc1ccccc1)C(=O)O [Apelin-17] | – | – | – | – | – | – | – | – | – | – | Cleavage by kallikrein [4]: Cleaves the 3N-terminal amino acids of apelin-17; Cleavage by prolyl carboxypeptidase [5]: Cleaves apelin 36, 17 and pyr-apelin 13; Degradation after one hour at room temperature (pH 2.5): minor degradation; Degradation after one hour at room temperature (pH 4.5): minor degradation; Stability in plasma acidified to pH 4.5 ([3]; pH 4.5): provide stability |
| Apelin-36: synthetic apelin isoform of 36 amino acids, purchased from CPC Scientific / Phoenix Pharmaceuticals (LVQPRGSRNGPGPWQGGRRKFRRQRPRLSHKGPMPF; Apelin-36; UniProt Q9ULZ1 42-77, looked up) | cooling with ice increases stability | – | negative influence | limited degradation | limited degradation | limited degradation | higher degradation | limited degradation | higher degradation | provide stability | Conversion by furin (PCSK3) [6]: directly to apelin 13; Cleavage by prolyl carboxypeptidase ([5]; similar to ACE-2 effect): Cleaves apelin 36, 17 and pyr-apelin 13; Activation of the apelin receptor (AR) [7]: can activate the AR |
| NGPGPWQGGRRKFRRQRPRLSHKGPMPF [Apelin-28] | – | – | – | – | – | – | – | – | – | – | Influence of pH on stability in K2EDTA plasma ([2]; K2EDTA plasma non-acidified vs pH 4.5 vs pH 2.5, 60 min at room temperature): slightly better stability in K2EDTA plasma at pH 4.5 and pH 2.5 than in non-acidified plasma |
